Results: article PMC4774911, “Biochemical Screening of Five Protein Kinases from Plasmodium falciparum against 14,000 Cell-Active Compounds” (PLoS ONE, 2016)
Read-outs that look alike come from different tables or passages of the source.

Key:
3D7 PFLDH [1] = tested on: 3D7 PFLDH; set-up: method as in ChEMBL; settings: ref ChEMBL; cited from earlier work
P. falciparum DD2 = tested on: P. falciparum DD2; set-up: method as in ChEMBL; settings: ref ChEMBL; cited from earlier work
PRKCI = PRKCI (Homo sapiens, UniProt P41743); test: biochemical
ARAF = ARAF (Homo sapiens, UniProt P10398); test: biochemical
TAOK1 = TAOK1 (Homo sapiens, UniProt Q7L7X3); test: biochemical
DD2 [2] = tested on: DD2; set-up: method as in F.J. Gamo et al., Nature 2010; settings: P. falciparum Dd2; downloaded from ChEMBL ref F.J. Gamo et al., Nature 2010; cited from earlier work
TNK2 = TNK2 (Homo sapiens, UniProt Q07912); test: Kinobead competition assay in K562 extract: TNK2
Experimental: Kinobeads were prepared as described [25, 26]. […] Briefly, Kinobeads were washed and equilibrated in lysis buffer (50 mM Tris-Cl, pH 7.4, 0.4% Igepal-CA630, 1.5 mM MgCl2, 5% Glycerol, 150 mM NaCl, 25 mM NaF, 1 mM Na3VO4, 1 mM DTT, and 1 complete EDTA-free protease inhibitor tablet (Roche) per 25 ml). […] Digestion, labeling with TMT isobaric mass tags, peptide fractionation, and mass spectrometric analyses were performed essentially as described [27]. Criteria for protein quantification were: a minimum of 2 sequence assignments matching to unique peptides was required (FDR for quantified proteins <<0.1%), Mascot ion score > 15, signal to background ratio of the precursor ion > 4, signal to interference > 0.5 [28]. Reporter ion intensities were multiplied by ion accumulation time, yielding an area value proportional to the number of reporter ions present in the mass analyzer. Peptide fold changes were corrected for isotope purity as described and adjusted for interference caused by co-eluting nearly isobaric peaks as estimated by the signal-to-interference measure [29]. Protein quantification was achieved using a sum-based bootstrap algorithm [30]. Apparent dissociation constants were determined by taking into account the protein depletion by the beads as described [27].
Kinobeads were incubated with K562 cell extract either in the presence of vehicle (DMSO) or TCAMS compound, respectively (20 μM-0.03 μM). Protein kinases captured by the beads (140–150 kinases per experiment) were quantified following tryptic digestion, isobaric peptide tagging, and LC-MS/MS analysis. Kinases were identified as potential targets by virtue of their reduced capture in the presence of excess TCAMS compounds. Apparent dissociation constants (Kd’s) were calculated from the extent to which capture of each kinase was reduced at each compound concentration.

3D7 PFLDH [3] = tested on: 3D7 PFLDH; set-up: method as in F.J. Gamo et al., Nature 2010; settings: downloaded from ChEMBL ref F.J. Gamo et al., Nature 2010; cited from earlier work
HIPK2 = HIPK2 (Homo sapiens, UniProt Q9H2X6); test: biochemical
LRRK2 = LRRK2 (Homo sapiens, UniProt Q5S007); test: biochemical
ILK = ILK (Homo sapiens, UniProt Q13418); test: biochemical
HIPK1 = HIPK1 (Homo sapiens, UniProt Q86Z02); test: biochemical
PLK1 = PLK1 (Homo sapiens, UniProt P53350); test: biochemical
ABL1 = test: biochemical; set-up: species or system human, K562 (extract); replicate k of n = 2 (each experiment ID is one independent experiment; two experiment IDs per compound); settings: human; read-out: KDapp
LOC100128443 = test: biochemical; set-up: species or system human, K562 (extract); replicate k of n = 2 (each experiment ID is one independent experiment; two experiment IDs per compound); settings: human; read-out: KDapp
BMX = BMX (Homo sapiens, UniProt P51813); test: biochemical
STK38L = STK38L (Homo sapiens, UniProt Q9Y2H1); test: biochemical
PRKACA = PRKACA (Homo sapiens, UniProt P17612); test: biochemical
PIK3C3 = PIK3C3 (Homo sapiens, UniProt Q8NEB9); test: biochemical
KIT = KIT (Homo sapiens, UniProt P10721); test: biochemical
MAPKAPK3 = MAPKAPK3 (Homo sapiens, UniProt Q16644); test: biochemical
PKG = PKG (Plasmodium falciparum, UniProt Q8I719); test: PKG IC50 (supplementary data file); assay type: biochemical
From the text: Supplement pone.0149996.s003.xls, sheet "combined_1_sorted"

3D7 PFLDH [4] = tested on: 3D7 PFLDH; set-up: method as in F.J. Gamo et al., Nature 2010; concentration or dose not given beside the values; settings: downloaded from ChEMBL, ref F.J. Gamo et al., Nature 2010; cited from earlier work
DD2 [5] = tested on: DD2; set-up: method as in F.J. Gamo et al., Nature 2010; settings: downloaded from ChEMBL, ref F.J. Gamo et al., Nature 2010; cited from earlier work
[6] = TNK2, K-562 extract, conc. series 20.0-0.0uM, channel assignment not given

Sequence of TNK2 (Q07912 whole entry): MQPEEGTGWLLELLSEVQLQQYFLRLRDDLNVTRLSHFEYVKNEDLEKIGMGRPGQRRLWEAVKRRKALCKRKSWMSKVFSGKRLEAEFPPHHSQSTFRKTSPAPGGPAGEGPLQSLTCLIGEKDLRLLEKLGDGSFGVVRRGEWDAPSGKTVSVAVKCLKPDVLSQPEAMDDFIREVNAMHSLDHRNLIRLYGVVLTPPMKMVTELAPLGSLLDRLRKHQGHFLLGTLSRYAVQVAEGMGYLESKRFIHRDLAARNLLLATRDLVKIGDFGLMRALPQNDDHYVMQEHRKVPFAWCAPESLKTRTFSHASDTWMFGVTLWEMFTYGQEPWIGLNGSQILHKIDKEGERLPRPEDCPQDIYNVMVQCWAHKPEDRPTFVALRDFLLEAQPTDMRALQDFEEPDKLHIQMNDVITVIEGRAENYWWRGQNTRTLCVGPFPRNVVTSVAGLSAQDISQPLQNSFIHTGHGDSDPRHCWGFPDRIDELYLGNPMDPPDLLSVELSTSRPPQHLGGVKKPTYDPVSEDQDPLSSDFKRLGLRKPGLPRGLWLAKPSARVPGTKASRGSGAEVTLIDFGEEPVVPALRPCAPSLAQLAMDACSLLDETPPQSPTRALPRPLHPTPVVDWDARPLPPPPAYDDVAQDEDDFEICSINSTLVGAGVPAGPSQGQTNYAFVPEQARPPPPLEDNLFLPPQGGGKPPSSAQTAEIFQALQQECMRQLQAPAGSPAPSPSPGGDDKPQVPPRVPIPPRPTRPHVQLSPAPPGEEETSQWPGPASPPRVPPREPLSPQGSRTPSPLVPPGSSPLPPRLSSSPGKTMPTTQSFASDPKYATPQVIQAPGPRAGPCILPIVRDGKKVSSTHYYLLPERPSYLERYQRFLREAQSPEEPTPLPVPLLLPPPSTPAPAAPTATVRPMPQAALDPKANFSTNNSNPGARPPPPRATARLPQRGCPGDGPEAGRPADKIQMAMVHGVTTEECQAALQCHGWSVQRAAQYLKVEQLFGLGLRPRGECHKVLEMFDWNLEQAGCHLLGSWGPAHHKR
Sequence of ABL1 (P00519 whole entry): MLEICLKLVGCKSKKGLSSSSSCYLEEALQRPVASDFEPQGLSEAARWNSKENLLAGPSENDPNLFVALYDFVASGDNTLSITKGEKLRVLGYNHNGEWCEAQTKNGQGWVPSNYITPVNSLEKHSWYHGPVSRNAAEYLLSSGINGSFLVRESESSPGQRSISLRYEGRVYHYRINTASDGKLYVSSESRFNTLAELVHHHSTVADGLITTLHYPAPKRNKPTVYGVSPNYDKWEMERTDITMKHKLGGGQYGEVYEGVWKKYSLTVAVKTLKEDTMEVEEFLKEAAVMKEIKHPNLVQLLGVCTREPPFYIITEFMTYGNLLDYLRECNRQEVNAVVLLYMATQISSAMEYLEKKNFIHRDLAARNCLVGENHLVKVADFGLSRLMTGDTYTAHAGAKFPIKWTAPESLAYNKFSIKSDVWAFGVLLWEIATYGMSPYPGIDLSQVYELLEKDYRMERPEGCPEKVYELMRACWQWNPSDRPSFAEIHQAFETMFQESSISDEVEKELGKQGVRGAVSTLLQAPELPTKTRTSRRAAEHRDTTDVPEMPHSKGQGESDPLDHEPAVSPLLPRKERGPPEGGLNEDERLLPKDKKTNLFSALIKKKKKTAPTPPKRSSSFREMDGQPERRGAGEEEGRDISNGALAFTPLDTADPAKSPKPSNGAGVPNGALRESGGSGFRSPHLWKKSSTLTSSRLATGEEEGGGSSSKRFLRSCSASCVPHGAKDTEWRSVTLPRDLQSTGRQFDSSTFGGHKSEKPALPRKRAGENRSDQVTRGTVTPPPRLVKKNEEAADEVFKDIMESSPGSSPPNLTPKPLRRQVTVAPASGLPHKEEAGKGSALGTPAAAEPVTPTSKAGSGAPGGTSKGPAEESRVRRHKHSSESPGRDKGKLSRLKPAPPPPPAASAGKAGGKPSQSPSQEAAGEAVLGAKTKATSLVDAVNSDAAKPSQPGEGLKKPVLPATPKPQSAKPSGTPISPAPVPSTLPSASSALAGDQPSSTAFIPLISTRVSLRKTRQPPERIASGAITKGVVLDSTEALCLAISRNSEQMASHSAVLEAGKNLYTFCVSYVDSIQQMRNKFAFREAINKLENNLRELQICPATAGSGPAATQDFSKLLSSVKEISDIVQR
Sequence of TAOK1 (Q7L7X3 whole entry): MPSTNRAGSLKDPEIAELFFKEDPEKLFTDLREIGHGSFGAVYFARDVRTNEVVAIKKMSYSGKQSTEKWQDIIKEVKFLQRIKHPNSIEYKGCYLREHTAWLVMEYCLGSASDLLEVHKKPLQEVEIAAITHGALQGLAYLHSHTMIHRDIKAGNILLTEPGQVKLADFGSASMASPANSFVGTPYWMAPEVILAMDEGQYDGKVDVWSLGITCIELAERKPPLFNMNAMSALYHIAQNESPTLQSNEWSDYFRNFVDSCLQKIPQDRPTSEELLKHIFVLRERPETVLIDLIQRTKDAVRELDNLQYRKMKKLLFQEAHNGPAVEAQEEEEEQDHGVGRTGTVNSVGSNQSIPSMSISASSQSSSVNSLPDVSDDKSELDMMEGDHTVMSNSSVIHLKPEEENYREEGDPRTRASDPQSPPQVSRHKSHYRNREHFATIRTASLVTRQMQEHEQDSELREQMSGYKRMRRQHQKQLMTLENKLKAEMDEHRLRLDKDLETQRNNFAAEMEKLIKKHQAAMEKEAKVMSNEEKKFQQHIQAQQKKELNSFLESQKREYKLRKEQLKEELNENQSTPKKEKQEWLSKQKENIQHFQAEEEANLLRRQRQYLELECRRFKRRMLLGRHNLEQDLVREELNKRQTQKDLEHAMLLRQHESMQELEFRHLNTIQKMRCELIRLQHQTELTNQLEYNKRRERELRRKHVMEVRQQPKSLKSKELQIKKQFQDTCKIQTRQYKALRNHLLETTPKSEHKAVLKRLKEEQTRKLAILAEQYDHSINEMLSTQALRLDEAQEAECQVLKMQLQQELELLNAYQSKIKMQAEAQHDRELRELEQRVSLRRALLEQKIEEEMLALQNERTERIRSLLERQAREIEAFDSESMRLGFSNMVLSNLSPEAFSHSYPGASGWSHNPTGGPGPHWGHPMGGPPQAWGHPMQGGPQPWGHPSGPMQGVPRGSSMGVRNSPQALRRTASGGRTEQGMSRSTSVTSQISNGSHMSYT
Sequence of PKG (Q8I719 whole entry): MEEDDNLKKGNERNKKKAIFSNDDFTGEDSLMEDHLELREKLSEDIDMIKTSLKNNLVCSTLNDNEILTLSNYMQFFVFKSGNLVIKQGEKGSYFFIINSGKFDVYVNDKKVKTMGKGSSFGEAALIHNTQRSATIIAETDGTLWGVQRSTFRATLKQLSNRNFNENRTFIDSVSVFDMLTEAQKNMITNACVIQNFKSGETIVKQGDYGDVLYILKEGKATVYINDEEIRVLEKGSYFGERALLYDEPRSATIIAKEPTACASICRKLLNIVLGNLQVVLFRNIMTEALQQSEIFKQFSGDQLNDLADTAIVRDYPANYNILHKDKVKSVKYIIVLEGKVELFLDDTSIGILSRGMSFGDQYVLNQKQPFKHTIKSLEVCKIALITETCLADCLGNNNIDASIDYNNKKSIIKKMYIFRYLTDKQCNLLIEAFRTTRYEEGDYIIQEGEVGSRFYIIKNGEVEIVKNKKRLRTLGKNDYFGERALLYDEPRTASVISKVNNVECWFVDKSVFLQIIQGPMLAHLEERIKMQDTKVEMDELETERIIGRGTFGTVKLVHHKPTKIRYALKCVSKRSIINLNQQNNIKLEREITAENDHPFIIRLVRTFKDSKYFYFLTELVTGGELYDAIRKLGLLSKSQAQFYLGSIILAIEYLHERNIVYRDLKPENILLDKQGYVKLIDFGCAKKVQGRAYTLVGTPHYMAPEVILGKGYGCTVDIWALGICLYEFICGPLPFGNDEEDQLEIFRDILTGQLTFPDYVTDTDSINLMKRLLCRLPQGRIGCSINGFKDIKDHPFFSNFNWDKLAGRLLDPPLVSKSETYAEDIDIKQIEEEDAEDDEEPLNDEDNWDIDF
Sequence of KIT (P10721 whole entry): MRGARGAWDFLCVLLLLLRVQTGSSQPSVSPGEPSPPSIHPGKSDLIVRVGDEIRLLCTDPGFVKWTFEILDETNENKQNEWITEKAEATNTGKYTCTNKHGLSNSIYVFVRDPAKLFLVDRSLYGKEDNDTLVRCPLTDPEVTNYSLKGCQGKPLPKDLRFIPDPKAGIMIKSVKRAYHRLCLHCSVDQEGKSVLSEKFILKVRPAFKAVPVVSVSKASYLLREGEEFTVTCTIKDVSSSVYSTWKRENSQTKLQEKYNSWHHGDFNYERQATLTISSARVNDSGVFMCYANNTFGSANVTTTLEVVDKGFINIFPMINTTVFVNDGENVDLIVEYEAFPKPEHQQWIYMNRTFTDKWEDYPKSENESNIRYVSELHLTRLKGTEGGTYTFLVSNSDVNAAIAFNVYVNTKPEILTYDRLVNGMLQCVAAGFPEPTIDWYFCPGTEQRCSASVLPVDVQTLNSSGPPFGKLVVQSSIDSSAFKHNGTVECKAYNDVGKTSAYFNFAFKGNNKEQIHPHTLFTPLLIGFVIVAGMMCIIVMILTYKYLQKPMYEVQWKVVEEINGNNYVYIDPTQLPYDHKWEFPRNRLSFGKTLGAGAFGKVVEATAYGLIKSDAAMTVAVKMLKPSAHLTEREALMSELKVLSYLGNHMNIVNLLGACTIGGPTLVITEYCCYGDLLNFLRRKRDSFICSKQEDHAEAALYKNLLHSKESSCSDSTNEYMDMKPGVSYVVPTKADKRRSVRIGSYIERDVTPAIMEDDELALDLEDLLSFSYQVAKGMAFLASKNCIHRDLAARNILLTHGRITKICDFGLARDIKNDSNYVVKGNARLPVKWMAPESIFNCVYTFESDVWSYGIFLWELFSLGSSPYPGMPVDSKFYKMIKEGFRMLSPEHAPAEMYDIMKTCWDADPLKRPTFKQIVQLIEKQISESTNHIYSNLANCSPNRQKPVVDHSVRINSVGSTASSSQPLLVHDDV

## CN(C)CC(O)COc1ccc(Nc2ncc([N+](=O)[O-])c(Nc3ccccc3O)n2)cc1.O=C(O)C(F)(F)F (stereo not drawn) [TCMDC-141399]
3D7 PFLDH [1]
  PCT_INHIB_3D7_PFLDH: 0
P. falciparum DD2
  PCT_INHB_DD2: 20
PRKCI
  IC50: > 20000 nM
ARAF
  IC50: > 20000 nM
TAOK1
  IC50: 6100 nM

## Cl.NCC1(c2nc(-c3ccc(Cl)c(O)c3)c(-c3ccncc3)[nH]2)CCCCC1 [TCMDC-141154]
DD2 [2]
  PCT_INHB_DD2: 98
TNK2
  IC50: > 20000 nM
TNK2; TNK2, K-562 extract, conc. series 20.0, 4.0, 0.8, 0.16, 0.032, 0.0uM, channel assignment not given
  abundance relative to vehicle TMT126: 0.90
TNK2; [6]
  abundance relative to vehicle TMT127L: 1.02
  abundance relative to vehicle TMT128H: 1.06
  abundance relative to vehicle TMT129L: 1.03
  abundance relative to vehicle TMT130H: 1.20
TNK2; TNK2, kinobead competition curve
  Hill: 1
3D7 PFLDH [3]
  PCT_INHIB_3D7_PFLDH: 0
HIPK2
  IC50: > 20000 nM
LRRK2
  IC50: > 20000 nM
ILK
  IC50: > 20000 nM
HIPK1
  IC50: > 20000 nM
PLK1
  IC50: > 20000 nM

## CN1CCN(c2ccc(Nc3ncc(C#N)c(Nc4ccccc4C(N)=O)n3)cc2)CC1.Cl [TCMDC-134116]
ABL1
  Kd: 58.6 nM
LOC100128443
  Kd: 199 nM
BMX
  IC50: 620 nM
STK38L
  IC50: 600 nM
PRKACA
  IC50: 1500 nM
PIK3C3
  IC50: 1100 nM
KIT
  IC50: 1300 nM
MAPKAPK3
  IC50: > 20000 nM
PKG
  IC50: 103 nM
3D7 PFLDH [4]
  PCT_INHIB_3D7_PFLDH: 0%
DD2 [5]
  PCT_INHB_DD2: 93%
